This is an account of results in patent EP0169405A2, “Use of substituted pyrimido (5,4-d) pyrimidines” (BOEHRINGER INGELHEIM KG, priority 1984, dated 1986).

Where two headings read alike, the source gives them in different places. Bounds are passed on as bounds.

Data set [1] has as its system Störung des Kurzzeitgedächtnisses. Description: Reversal of scopolamine-induced disturbance of short-term memory. The data set is classed as in vivo. As to conditions: po; scopolamine-induced memory disturbance is reversed; read-out: niedrigste wirksame Dosis (wirksam ab). The text has this:
In der Formel I bedeutet • ^R1 einen Cl-C3-Alkoxy-(C2-C3-alkyl)rest, • ^R2 einen C2-C6-Hydroxyalkylrest oder einen C3-Dihydroxy- alkylrest, • ^R3 einen C1-C3-Alkoxy-(C2-C3-alkyl) rest oder einen C2-C3-Hydroxyalkylrest, • R4 einen Dialkylaminorest, wobei jeder Alkylrest 1 bis 6 C-Atome enthalten kann, die Diallyl- oder Di-(methoxyethyl)-aminogruppe oder einen gegebenenfalls durch eine Methylgruppe substituierten Pyrrolidino-, Piperidino-, Hexamethylenamino-, 1', 2', 5', 6'-Tetrahydropyridino-, Morpholino-, Thiomorpholino- oder 1-Oxidothiomorpholinoring. Die Verbindungen können als freie Basen oder als physiologisch verträgliche Säureadditionssalze mit anorganischen oder organischen Säuren vorliegen. Es wurde nun in tierexperimentellen Untersuchungen gefunden, daß die Verbindungen überraschenderweise besonders zur Beeinflussung eingeschränkter zerebraler Leistungsfähigkeit geeignet sind. Die folgenden Ergebnisse stützen diese Aussage: • 1. Durch gabe des muskarinen cholinergen Antagonisten Scopolamin wird eine Störung des Kurzzeitgedächtnisses bzw. des Übergangs von Inhalten des Kurzzeit- in das sogenannte Langzeitgedächnis erzeugt. Diese Einschränkung wird durch die neuen Verbindungen aufgehoben. […]

The nature of data set [2]: Acute toxicity in the mouse (LD50). As to conditions: in vivo.

Broadly, the LD50 is the dose expected to kill half of the subjects tested.

As for `NC(=O)CN1CCCC1=O` [Piracetam], in data set [1], the minimal effective dose is 150 mg/kg. Take `CCN(CC)c1nc(N(CCO)CCOC)nc2c(N(CC)CC)nc(N(CCO)CCOC)nc12` [Verbindung (B)]: the LD50 was 133 mg/kg in data set [2] (iv, read-out: i.v. LD50) and more than 3000 mg/kg in data set [2] (po, read-out: p.o. LD50). As to `COc1ccc(C(=O)N2CCCC2=O)cc1` [Aniracetam], in data set [1], the minimal effective dose worked out at 50 mg/kg.
